From PMC7035787 (Molecular pharmaceutics, 2019)

Key:
[1] = in vivo; conditions: male, Sprague-Dawley, rat, 3 mg/kg
[2] = Pulmonary retention in isolated perfused rat lung; format: in vitro ADME; conditions: rat, 3 mg/kg, 2 h
[3] = system: lungs from sham and PAH rats; assay: Pulmonary retention in isolated perfused rat lung; format: in vitro ADME; conditions: IT route, sham and PAH lungs

O=S(=O)(c1cccc2cnccc12)N1CCCNCC1 [plain fasudil, fasudil]
AUC(0-inf) [1]: 5967 ± 25.9 ng·h/mL
Cmax ([1]; inhaled or intranasal): 3040 ± 635 ng/mL
AUC(0-inf) ([1]; iv): 5967 ± 25.9 ng·h/mL
recovery at 2 h ([2]; IPRL tubes (circuitry), other: intratracheal (IT) via the tracheal cannula, pH 7.4, recovery dose (%) IPRL tubes, IT route, PAH lungs, by subtraction from dose): 16.6 ± 7.7%
recovery at 2 h ([2]; IPRL tubes (circuitry), other: intratracheal (IT) via the tracheal cannula, pH 7.4, recovery dose (%) IPRL tubes, IT route, Sham lungs, by subtraction from dose): 7.4 ± 1%
recovery at 2 h ([2]; lung homogenate, other: intratracheal (IT) via the tracheal cannula, pH 7.4, recovery dose (%) lung, IT route, PAH lungs, fasudil 3 mg/kg): 70.1 ± 7.3%
recovery at 2 h ([2]; lung homogenate, other: intratracheal (IT) via the tracheal cannula, pH 7.4, recovery dose (%) lung, IT route, Sham lungs, fasudil 3 mg/kg): 71.8 ± 2%
recovery at 2 h ([2]; lung homogenate, other: via the cannulated pulmonary artery, mimicking IV, pH 7.4, recovery dose (%) lung, IV-mimicking route, PAH lungs, fasudil 3 mg/kg): 49.6 ± 6.2%
recovery at 2 h ([2]; lung homogenate, other: via the cannulated pulmonary artery, mimicking IV, pH 7.4, recovery dose (%) lung, IV-mimicking route, Sham lungs, fasudil 3 mg/kg): 34.7 ± 3.2%
recovery at 2 h ([2]; perfusate, other: intratracheal (IT) via the tracheal cannula, pH 7.4, recovery dose (%) perfusate, IT route, PAH lungs, fasudil 3 mg/kg): 13.3 ± 2.6%
recovery at 2 h ([2]; perfusate, other: intratracheal (IT) via the tracheal cannula, pH 7.4, recovery dose (%) perfusate, IT route, Sham lungs, fasudil 3 mg/kg): 20.8 ± 2.7%
recovery at 2 h ([2]; perfusate, other: via the cannulated pulmonary artery, mimicking IV, pH 7.4, recovery dose (%) perfusate, IV-mimicking route, PAH lungs, fasudil 3 mg/kg): 39.1 ± 3.9%
recovery at 2 h ([2]; perfusate, other: via the cannulated pulmonary artery, mimicking IV, pH 7.4, recovery dose (%) perfusate, IV-mimicking route, Sham lungs, fasudil 3 mg/kg): 56.5 ± 5.3%
drug concentration in the perfusate [3]: about 10 μg/mL
